target: PCP receptor; assay: [3H]TCP radioreceptor assay (binding to PCP recognition sites); parameters: species or system rat (male Sprague-Dawley, whole brain); conditions: [3H]TCP approx. 1 nM, rat brain membranes; mean of at least two determinations
Method: [^3 H]TCP Radioreceptor Assay
[^3 H]TCP binding to PCP recognition sites was performed as described by Vignon et al. Brain Research 1983, 280, 194-197. Male Sprague-Dawley rats were sacrificed by decapitation, and whole brains were homogenized in 10 volumes (wt/vol) of cold Tris-HCl buffer (50 mM, pH 7.7) using a Brinkmann Polytron (setting 6, 30 sec). The homogenate was centrifuged at 40,000×g for 10 min at 4° C. The supernatant was decanted, and the homogenization and centrifugation steps were repeated twice as described above. Following this, the pellet was resuspended in Tris-HCl (5 mM, pH 7.7) at a tissue concentration of 0.5-0.75 g/mL, and one mL aliquots were frozen at -70° C. until use. The binding characteristics for PCP recognition sites were not altered by the freezing of membrane suspensions.
On the day of the assay, membrane aliquots were thawed, resuspended in fresh 5 mM Tris-HCl buffer at a tissue concentration of 1 mg/mL, and stored on ice until use. Each assay tube contained 100 μl of [^3 H]TCP at a final concentration of approximately 1 nM, 100 μL of various concentrations of the compounds of interest, 500 μL of the tissue suspension and 300 μL of buffer to a final assay volume of 1 mL and a final protein concentration of 0.5 mg/tube. Non-specific binding was defined by addition of a final concentration of 100 μM PCP to blank tubes. All tubes were incubated at room temperature for 25 min before termination of the reaction by rapid filtration over Whatman GF/B glass fiber filters that had been presoaked in a solution of 0.5% polyethylenimine for at least 1 hr prior to use. Filters were washed with three 4 mL volumes of cold Tris buffer. Following addition of scintillation cocktail, the amount of bound radioactivity was determined by liquid scintillation spectrometry using a Beckman LS 5000TA liquid scintillation counter with an efficiency for tritium of approximately 55%. Inhibition constants (Ki values) were calculated using the EBDA/LIGAND program (McPherson, J. Pharmacol. Meth. 1985, 14, 213-228), purchased from ElsevierBiosoft, Inc. Results are reported as the Ki values (in nM) which are expressed as the mean of at least two separate determinations; or as a percent (%) inhibition of binding at 10 μM.

| Structure (SMILES) | Ki [µM] |
| --- | --- |
| CC(C)Oc1cccc2c1C1c3cccc[n+]3C2CC1(c1ccccc1)c1ccccc1 (stereo not drawn) [32(F), 6,11-ethano-12.12-diphenyl-10-isopropoxy-6,11-dihydrobenzo[b]quinoliziniumchloride] | 0.468 |
| [O-][Cl+3]([O-])([O-])[O-].c1ccc(C2(N3CCOCC3)CC3c4ccccc4C2c2cccc[n+]23)cc1 (stereo not drawn) [111(b), 6,11-Ethano-12-phenyl-12-(4-morpholinyl)-6,11-dihydrobenzo[b]quinolizinium perchlorate] | 0.0378 |
| c1ccc2c(c1)CC1C2C2c3ccccc3C1[n+]1ccccc12 (single isomer, unassigned) [Example 2(b), 6,11[[2',3']indanyl]6,11-dihydrobenzo[b]quinolizinium chloride] | 0.262 |
| c1ccc2c(c1)C1CC(c3nccs3)(c3nccs3)C2c2cccc[n+]21 (stereo not drawn) [61(c), 6,11-ethao-12,12-di(2-thiazolyl)-6,11-dihydrobenzo[b]quinolizinium perchlorate] | 0.017 |
| CCOC1(c2cc(C)oc2C)CC2c3ccccc3C1c1cccc[n+]12 (stereo not drawn) [12(b), 6,11-ethano-12-(2,5-dimethyl)-3-furyl]-12-ethoxy-6,11-dihydrobenzo[b]quinolizinium hexafluorophosphate] | 0.253 |
| Fc1cc(F)c2c(c1)C1CC(c3ccccc3)(c3ccccc3)C2c2cccc[n+]21 (stereo not drawn) [33(c), 6,11-ethanol-12,12-diphenyl-8,10-difluoro-6,11-dihydrobenzo[b]quinolizinium chloride 1/4 hydrate] | 1.14 |
| c1ccc2c(c1)C1C3CCc4occc4C3(c3cc4ccccc4o3)C2c2cccc[n+]21 (stereo not drawn) [Example 10(c), 6,11[[5',4']-4'-(2-benzofuryl)-4',5',6',7'-tetrahydrobenzofuryl]6,11-dihydrobenzo[b]quinolizinium hexafluorophosphate] | 1.1 |
| Fc1ccc[n+]2c1C1c3ccccc3C2CC1(c1ccoc1)c1ccoc1.[O-][Cl+3]([O-])([O-])[O-] (stereo not drawn) [197(d), 6,11-ethano-12,12-di(3-furyl)-1-fluoro-6,11-dihydrobenzo[b]quinolizinium perchlorate] | 0.0138 |
| Brc1cccc(C2(c3cccc(Br)c3)CC3c4ccccc4C2c2cccc[n+]23)c1 (stereo not drawn) [36(c), 6,11-ethano-12,12-di(m-bromophenyl)-6,11-dihydrobenzo[b]quinolizinium chloride] | 0.185 |
| Oc1cccc(C2(c3cccc(O)c3)CC3c4ccccc4C2c2cccc[n+]23)c1.[O-][Cl+3]([O-])([O-])[O-] (stereo not drawn) [Example 177, 6,11-ethano-12,12-di(m-hydroxyphenyl)-6,11-dihydrobenzo[b]quinolizinium perchlorate] | 0.0138 |
| c1ccc(C2(c3ccccc3)C3c4ccccc4C([n+]4ccccc43)C23CC3)cc1 (stereo not drawn) [22(b), 6,11-ethano-12,12-diphenyl-13,13-spirocyclopropyl-6,11-dihydrobenzo[b]quinolizinium chloride] | 0.00907 |
| CCOC(=O)CC(C)(C)C(=O)Oc1cccc2c1C1c3cccc[n+]3C2CC1(c1ccoc1)c1ccoc1 (stereo not drawn) [178(d), 6,11-ethano-12,12-di(3-furyl)-10-(OC(O)C(CH3)2 CH2 CO2Et)-6,11-dihydrobenzo[b]quinolizinium chloride] | 1.43 |
| COc1cccc2c1C1c3cccc[n+]3C2CC1(c1ccccc1)c1ccccc1.[O-][Cl+3]([O-])([O-])[O-] (stereo not drawn) [25(c), 6,11-ethano-12,12-diphenyl-10-methoxy-6,11-dihydrobenzo[b]quinolizinium perchlorate] | 0.0393 |
| CCOC(=O)C=CC(=O)Oc1cccc2c1C1c3cccc[n+]3C2CC1(c1ccoc1)c1ccoc1 (stereo not drawn) [167(c), 6,11-ethano-12,12-di(3-furyl)-10-(OC(O)CH=CHCO2 Et)-6,11-dihydrobenzo[b]quinolizinium perchlorate] | 0.00768 |
| c1ccc2c(c1)C1CC(c3cn[nH]c3)(c3cn[nH]c3)C2c2cccc[n+]21 (stereo not drawn) [161(d), 6,11-ethano-12,12-di(pyrazol-4-yl)]-6,11-dihydrobenzo[b]quinolizinium perchlorate] | 3.68 |
| Oc1cccc2c1C1c3cccc[n+]3C2CC1(c1cc[nH]c1)c1cc[nH]c1 (stereo not drawn) [190(b), 6,11-ethano-12,12-di(3-pyrrolyl)-10-hydroxy-6,11-dihydrobenzo[b]quinolizinium chloride] | 0.0107 |
| c1ccc2c(c1)CC1C2C2c3ccccc3C1[n+]1ccccc12 (single isomer, unassigned) [Example 2(a), 6,11[[2',3']-indanyl]6,11-dihydrobenzo[b]quinolizinium chloride] | 0.123 |
| CCOC1(c2ccoc2)CC2(C)c3ccccc3C1c1cccc[n+]12.[O-][Cl+3]([O-])([O-])[O-] (stereo not drawn) [Example 13(a), 6,11-ethano-12-(3-furyl)-12-ethoxy-6-methyl-6,11-dihydrobenzo[b]quinolizinium perchlorate] | 0.019 |
| CCCCCCCCOC(=O)CC(C)(C)C(=O)Oc1cccc2c1C1c3cccc[n+]3C2CC1(c1ccoc1)c1ccoc1 (stereo not drawn) [194(d), 12,12-di(3-furyl)-10-(OC(O)C(CH3)2 CH2 C(O)OOctyl)-6,11-ethano-6,11-dihydrobenzo[b]quinolizinium chloride] | 0.0713 |
| CC12CC(c3ccccc3)(c3ccccc3)C(c3ccccc31)c1cccc[n+]12 (single isomer, unassigned) [20(h), 6,11-ethano-12,12-diphenyl-6-methyl-6,11-dihydrobenzo[b]quinolizinium chloride 1/2 hydrate] | 0.00715 |
| Oc1cccc2c1C1c3cccc[n+]3C2CC1(c1ccccc1)c1ccccc1 (stereo not drawn) [28(c), 6,11-ethano-12,12-diphenyl-10-hydroxy-6,11-dihydrobenzo[b]quinolizinium chloride] | 0.0117 |
| CC(=O)Oc1cccc2c1C1c3cccc[n+]3C2CC1(c1ccoc1)c1ccoc1 (stereo not drawn) [Example 169, 6,11-ethano-12,12-di(3-furyl)-10-acetyloxy-6,11-dihydrobenzo-[b]quinolizinium chloride] | 0.00358 |
| [O-][Cl+3]([O-])([O-])[O-].c1ccc2c(c1)C1CC(c3cocn3)(c3cocn3)C2c2cccc[n+]21 (stereo not drawn) [53(g), 6,11-ethano-12,12-di(4-oxazolyl)-6,11-dihydrobenzo[b]quinolizinium perchlorate] | 0.093 |
| COc1ccc2c(c1)C1c3cccc[n+]3C2CC1(c1ccccc1)c1ccccc1 (stereo not drawn) [27(E), 6,11-ethano-12,12-diphenyl-9-methoxy-6,111-dihydrobenzo[b]quinolizinium chloride 1/2 hydrate] | 0.0104 |
| COc1cccc(C2(c3cccc(OC)c3)CC3c4ccccc4C2c2cccc[n+]23)c1 (stereo not drawn) [35(c), 6,11-ethano-12,12-di(m-methoxyphenyl)-6,11-dihydrobenzo[b]quinolizinium chloride] | 0.041 |
| [O-][Cl+3]([O-])([O-])[O-].c1ccc2c(c1)C1CC(c3cncs3)(c3cncs3)C2c2cccc[n+]21 (stereo not drawn) [62(c), 6,11-ethano-12,12-di(5-thiazolyl)-6,11-dihydrobenzo[b]quinolizinium perchlorate] | 0.12 |
| Oc1cccc2c1C1c3cccc[n+]3C2CC1(c1cc[nH]n1)c1cc[nH]n1 (stereo not drawn) [175(b)] | 0.119 |
| c1ccc(C2(c3ccccn3)CC3c4ccccc4C2c2cccc[n+]23)nc1 (stereo not drawn) [24(b), 6,11-ethano-12,12-di-(2-pyridyl)-6,11-dihydrobenzo[b]quinolizinium chloride hydrate] | 0.00839 |

same assay, conditions: inhibition of [3H]TCP binding at 10 μM

| Structure (SMILES) | [3H]TCP percent inhibition @ 10 μm [%] |
| --- | --- |
| FC(F)(F)c1cccc(C2(c3cccc(C(F)(F)F)c3)CC3c4ccccc4C2c2cccc[n+]23)c1.[Cl-] (stereo not drawn) [46(c), 6,11-ethano-12,12-di(m-trifluoromethylphenyl)-6,11-dihydrobenzo[b]quinolizinium chloride] | 31 |
| Brc1ccc(C2(c3ccc(Br)cc3)CC3c4ccccc4C2c2cccc[n+]23)cc1 (stereo not drawn) [23(c), 6,11-ethano-12,12-di-p-bromophenyl-6,11-dihydrobenzo[b]quinolizinium chloride] | 22 |
| COc1ccc(CN(c2ccc(C3(c4ccc(N(Cc5ccc(OC)cc5)S(C)(=O)=O)cc4)CC4c5ccccc5C3c3cccc[n+]34)cc2)S(C)(=O)=O)cc1 (stereo not drawn) [29(c), 6,11-ethano-12,12-di[4-(N-p-methoxybenzyl-N-methylsulfonylamino)phenyl]-6,11-dihydrobenzo[b]quinolizinium perchlorate 1/2 ethyl acetate] | 31 |
| [Cl-].c1ccc2c(c1)C1CC(c3ccncc3)(c3ccncc3)C2c2cccc[n+]21 (stereo not drawn) [49(E), 6,11-ethano-12,12-di(4-pyridyl)-6,11-dihydrobenzo[b]quinolizinium chloride] | 54 |
| Clc1ccc(C2(c3ccc(Cl)cc3)CC3c4ccccc4C2c2cccc[n+]23)cc1.F[P-](F)(F)(F)(F)F (stereo not drawn) [43(b), 6,11-ethano-12,12-di(p-chlorophenyl)-6,11-dihydrobenzo[b]quinolizinium hexafluorophosphate] | 45 |
